US10301304B2, “Selective inhibitor of phosphatidylinositol 3-kinase-gamma” (VERTEX PHARMACEUTICALS INCORPORATED, priority 2013, dated 2019)

Experiments:
[1] = test system: collagen-induced arthritis (CIA); assay: therapeutic mouse collagen-induced arthritis (CIA) model; type: in vivo; set-up: Histopathology Summed Score, Knees / Therapeutic Paw Score AUC / Histopathology Summed Score, Six Joints / Histopathology Summed Score, Paws: scale not given here; details: for All Paw Score AUC / Histopathology Summed Score, Knees / Histopathology Summed Score, Paws / Histopathology Summed Score, Six Joints / Prophylactic Paw Score AUC / Therapeutic Paw Score AUC: 10 days; for Arthritis scores measured daily, all paws (FIG. 1): *d2-11, vs vehicle
Experimental: Compound 1 was tested in the therapeutic mouse collagen-induced arthritis (CIA) model at 2.5 mg/kg BID (5 mg/kg/day), 5 mg/kg BID (10 mg/kg/day) or 10 mg/kg BID (20 mg/kg/day). Fostamatinib, a Syk small molecule inhibitor used as a reference standard, was dosed orally at 30 mg/kg BID (60 mg/kg/day). Compounds were dosed for 10 days in a 12/12-hour BID dosing regimen until the end of the study. Compound 1 was formulated in 0.2% MC, 1% SLS. Dosing volume was 10 mL/kg. Terminal plasma samples were collected at 2, 4 and 12 hours post last dose. All four paws and both knees were collected and processed for histopathology.

[2] = Permeability in MDCK wild-type cell line; type: in vitro ADME, canine; details: dog, MDCK-WT
Experimental: (§1) The permeability of Compound 1 was evaluated using both Caco-2 and MadinDarby canine kidney (MDCK) wild-type cell lines. Cells were exposed to drug in buffer on the apical side (measuring permeability in the A-to-B direction) or basolateral side (measuring permeability in the B-to-A direction) and incubated at 37° C. for one hour. Permeability was high in the A-to-B direction in both the MDCK and Caco-2 cell lines (33 and 18×10^−6 cm/sec, respectively).

MDCK-WT = assay: Permeability in MDCK wild-type cell line; type: in vitro ADME, canine; details: 1 μM, A > B
Experimental: as §1

[3] = Oral pharmacokinetics / bioavailability; type: in vivo; details: single oral; for AUC / AUC(0-inf) / Cmax / MRT / Tmax / half-life: in vivo
Text: The bioavailability in monkey (greater than 100%) may be explained by the tenfold difference between the IV and oral doses. Compound 1 was rapidly absorbed in all species, with maximum systemic concentration observed within approximately one to three hours of dosing.

CYP3A4 = CYP3A4 (Homo sapiens, UniProt P08684); assay: Inhibition of CYP Enzymes in Human Liver Microsomes; type: in vitro ADME; set-up: evaluated in human liver microsomes using the IC50 shift assay; from tissue; host or cells: human liver microsomes
Chain of CYP3A4 (P08684 whole entry): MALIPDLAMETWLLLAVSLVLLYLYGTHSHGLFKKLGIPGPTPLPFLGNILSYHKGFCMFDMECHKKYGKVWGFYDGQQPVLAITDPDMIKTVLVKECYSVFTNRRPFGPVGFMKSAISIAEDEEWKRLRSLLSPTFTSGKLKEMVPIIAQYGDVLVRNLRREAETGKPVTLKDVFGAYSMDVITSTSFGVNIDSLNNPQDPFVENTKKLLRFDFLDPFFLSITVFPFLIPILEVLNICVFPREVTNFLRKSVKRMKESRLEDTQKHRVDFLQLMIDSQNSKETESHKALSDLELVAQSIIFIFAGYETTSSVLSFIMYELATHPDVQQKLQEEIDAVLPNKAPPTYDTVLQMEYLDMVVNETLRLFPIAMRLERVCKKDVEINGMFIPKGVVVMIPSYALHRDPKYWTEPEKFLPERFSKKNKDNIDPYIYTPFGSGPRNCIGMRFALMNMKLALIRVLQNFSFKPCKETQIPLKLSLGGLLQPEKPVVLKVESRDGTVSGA
Experimental: (§2) Inhibition assays were conducted with selective CYP probes for each CYP enzyme at specific concentrations of substrate (close to its dissociation constant (Km) value). Compound 1 was a moderate inhibitor of CYP 1A2, 2B6 and 2C8; […]

CYP2C19 = CYP2C19 (Homo sapiens, UniProt P33261); assay: as above; type: in vitro ADME; set-up: from tissue; host or cells: human liver microsomes; details: CYP2C19, 30 μM S-Mephenytoin
Chain of CYP2C19 (P33261 whole entry): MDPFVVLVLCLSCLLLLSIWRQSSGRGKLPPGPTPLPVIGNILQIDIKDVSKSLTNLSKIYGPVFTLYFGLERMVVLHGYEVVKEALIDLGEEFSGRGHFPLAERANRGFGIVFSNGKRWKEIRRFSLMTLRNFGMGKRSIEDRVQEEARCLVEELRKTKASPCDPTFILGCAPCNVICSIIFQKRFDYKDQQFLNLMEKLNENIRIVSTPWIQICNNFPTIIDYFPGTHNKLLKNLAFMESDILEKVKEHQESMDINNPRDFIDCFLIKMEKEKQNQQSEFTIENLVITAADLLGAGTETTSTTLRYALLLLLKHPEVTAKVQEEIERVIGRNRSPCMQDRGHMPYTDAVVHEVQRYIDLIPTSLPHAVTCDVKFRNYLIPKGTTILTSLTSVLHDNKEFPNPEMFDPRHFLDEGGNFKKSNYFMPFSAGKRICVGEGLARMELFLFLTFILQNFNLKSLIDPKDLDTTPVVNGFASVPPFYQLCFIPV
Experimental: as §2

CYP2C8 = CYP2C8 (Homo sapiens, UniProt P10632); assay: as above; type: in vitro ADME; set-up: from tissue; host or cells: human liver microsomes; details: CYP2C8, 2.5 μM Paclitaxel
Chain of CYP2C8 (P10632 whole entry): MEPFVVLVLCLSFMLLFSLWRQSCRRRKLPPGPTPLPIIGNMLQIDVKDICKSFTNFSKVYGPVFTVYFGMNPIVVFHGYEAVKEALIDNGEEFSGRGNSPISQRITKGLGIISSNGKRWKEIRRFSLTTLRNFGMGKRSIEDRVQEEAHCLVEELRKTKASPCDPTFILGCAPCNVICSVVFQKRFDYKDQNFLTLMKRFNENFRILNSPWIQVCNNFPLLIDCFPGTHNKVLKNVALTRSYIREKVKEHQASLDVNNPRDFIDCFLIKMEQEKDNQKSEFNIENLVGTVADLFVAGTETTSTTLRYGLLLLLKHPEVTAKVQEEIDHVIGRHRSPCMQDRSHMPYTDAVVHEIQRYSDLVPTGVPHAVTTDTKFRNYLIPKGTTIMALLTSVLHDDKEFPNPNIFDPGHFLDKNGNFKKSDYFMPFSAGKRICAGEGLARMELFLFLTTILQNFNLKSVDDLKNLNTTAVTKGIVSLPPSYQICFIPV
Experimental: as §2

CYP1A2 = CYP1A2 (Homo sapiens, UniProt P05177); assay: as above; type: in vitro ADME; set-up: from tissue; host or cells: human liver microsomes; details: CYP1A2, 30 μM Phenacetin
Chain of CYP1A2 (P05177 whole entry): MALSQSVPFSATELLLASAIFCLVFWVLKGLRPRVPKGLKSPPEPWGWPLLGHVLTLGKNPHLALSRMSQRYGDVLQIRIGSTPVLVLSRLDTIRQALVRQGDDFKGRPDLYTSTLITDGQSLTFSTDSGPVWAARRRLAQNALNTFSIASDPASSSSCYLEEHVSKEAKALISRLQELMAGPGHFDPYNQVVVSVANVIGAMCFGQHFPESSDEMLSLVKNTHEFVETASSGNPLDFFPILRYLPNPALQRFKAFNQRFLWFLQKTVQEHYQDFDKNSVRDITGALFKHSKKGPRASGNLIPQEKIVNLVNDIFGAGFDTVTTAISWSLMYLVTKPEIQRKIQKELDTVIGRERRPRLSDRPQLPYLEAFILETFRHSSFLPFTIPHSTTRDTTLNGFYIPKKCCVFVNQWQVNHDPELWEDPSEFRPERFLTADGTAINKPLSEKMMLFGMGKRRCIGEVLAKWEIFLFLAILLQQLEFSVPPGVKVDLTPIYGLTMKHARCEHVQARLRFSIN
Experimental: as §2

CYP2C9 = CYP2C9 (Homo sapiens, UniProt P11712); assay: as above; type: in vitro ADME; set-up: from tissue; host or cells: human liver microsomes; details: CYP2C9, 2.5 μM Diclofenac
Chain of CYP2C9 (P11712 whole entry): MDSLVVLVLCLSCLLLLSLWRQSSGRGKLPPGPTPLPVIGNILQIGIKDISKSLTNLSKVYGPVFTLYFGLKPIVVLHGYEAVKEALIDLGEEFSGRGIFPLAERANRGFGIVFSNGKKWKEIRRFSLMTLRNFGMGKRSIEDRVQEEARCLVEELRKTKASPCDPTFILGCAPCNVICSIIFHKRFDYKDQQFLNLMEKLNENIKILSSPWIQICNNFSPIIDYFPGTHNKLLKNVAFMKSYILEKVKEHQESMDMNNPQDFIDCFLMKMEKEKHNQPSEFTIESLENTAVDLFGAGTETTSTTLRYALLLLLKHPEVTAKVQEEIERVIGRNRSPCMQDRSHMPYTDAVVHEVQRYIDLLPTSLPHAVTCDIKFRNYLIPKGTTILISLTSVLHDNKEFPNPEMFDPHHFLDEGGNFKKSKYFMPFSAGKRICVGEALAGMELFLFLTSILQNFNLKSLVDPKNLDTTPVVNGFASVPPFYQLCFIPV
Experimental: as §2

CYP2D6 = CYP2D6 (Homo sapiens, UniProt P10635); assay: as above; type: in vitro ADME; set-up: from tissue; host or cells: human liver microsomes; details: CYP2D6, 10 μM Bufuralol
Chain of CYP2D6 (P10635 whole entry): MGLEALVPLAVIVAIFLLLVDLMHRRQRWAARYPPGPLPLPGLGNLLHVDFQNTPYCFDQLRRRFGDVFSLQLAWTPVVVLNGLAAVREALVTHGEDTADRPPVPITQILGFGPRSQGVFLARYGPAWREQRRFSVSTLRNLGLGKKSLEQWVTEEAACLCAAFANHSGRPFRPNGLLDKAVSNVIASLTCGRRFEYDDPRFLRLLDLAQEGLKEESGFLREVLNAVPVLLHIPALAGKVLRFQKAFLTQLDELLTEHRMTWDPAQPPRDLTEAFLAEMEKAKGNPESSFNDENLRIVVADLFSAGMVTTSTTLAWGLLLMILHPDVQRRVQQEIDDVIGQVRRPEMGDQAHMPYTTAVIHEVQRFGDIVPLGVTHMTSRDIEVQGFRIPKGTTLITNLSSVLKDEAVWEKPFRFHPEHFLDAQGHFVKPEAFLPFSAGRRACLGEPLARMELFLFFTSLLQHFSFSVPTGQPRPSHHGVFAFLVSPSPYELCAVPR
Experimental: as §2

CYP2B6 = CYP2B6 (Homo sapiens, UniProt P20813); assay: as above; type: in vitro ADME; set-up: from tissue; host or cells: human liver microsomes; details: CYP2B6, 100 μM Bupropion
Chain of CYP2B6 (P20813 whole entry): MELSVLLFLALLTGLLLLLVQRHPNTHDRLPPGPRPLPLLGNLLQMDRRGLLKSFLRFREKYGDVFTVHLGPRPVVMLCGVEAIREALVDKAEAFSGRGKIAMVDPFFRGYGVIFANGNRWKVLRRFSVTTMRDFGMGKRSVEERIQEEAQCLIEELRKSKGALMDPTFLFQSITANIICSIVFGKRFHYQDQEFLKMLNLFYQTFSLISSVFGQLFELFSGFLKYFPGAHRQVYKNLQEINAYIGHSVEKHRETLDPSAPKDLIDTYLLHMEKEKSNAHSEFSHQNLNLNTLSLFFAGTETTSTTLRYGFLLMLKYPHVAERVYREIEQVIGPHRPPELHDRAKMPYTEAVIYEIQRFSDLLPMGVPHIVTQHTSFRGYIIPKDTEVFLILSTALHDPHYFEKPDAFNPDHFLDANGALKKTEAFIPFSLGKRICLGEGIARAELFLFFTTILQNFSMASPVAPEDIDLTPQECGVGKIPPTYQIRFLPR
Experimental: as §2

[4] = Dog, 3 mg/kg nominal, spray-dried dispersion
[5] = Monkey, 5 mg/kg nominal, spray-dried dispersion
[6] = Mouse, 1 mg/kg nominal, 0.2% MC/1% SLS

In the case of `Cc1cc(-c2cncc([C@@H](O)C(F)(F)F)c2)nc2c1C(=O)N(c1cnn(CC(F)F)c1)C2(C)C` [Compound 1, (R)-6-(1-(2,2-difluoroethyl)-1H-pyrazol-4-yl)-4,7,7-trimethyl-2-(5-(2,2,2-trifluoro-1-hydroxyethyl)pyridin-3-yl)-6,7-dihydro-5H-pyrrolo[3,4-b]pyridin-5-one], the “reduction of arthritis scores AUC, prophylactic paws only” value (from here on “reduction … prophylactic paws only”) ([1]; 2.5 mg/kg BID) is reported as 42%, the “reduction of clinical arthritis scores AUC vs vehicle, all paws” value (“reduction … all paws” for short) ([1]; 2.5 mg/kg BID) is reported as 28% and the “All Paw Score AUC” value ([1]; 2.5 mg/kg BID) is reported as “*22.76”. The “Histopathology Summed Score, Knees” value ([1]; 2.5 mg/kg BID) was 6.83, the “Histopathology Summed Score, Paws” value ([1]; 2.5 mg/kg BID) was 8.14 and the “Histopathology Summed Score, Six Joints” value ([1]; 2.5 mg/kg BID) was 7.70. For the same compound, the “Prophylactic Paw Score AUC” value ([1]; 2.5 mg/kg BID) was “*41.35”, the “Therapeutic Paw Score AUC” value ([1]; 2.5 mg/kg BID) was 49.25 and the “clinical arthritis scores, prophylactic paws (FIG. 3)” value (shortened to “clinical arthritis scores … (FIG. 3)”) ([1]; 2.5 mg/kg BID, *d2, 4-11) was “significantly reduced”. The “Arthritis scores measured daily, all paws (FIG. 1)” value (“Arthritis scores measured daily” below) ([1]; 2.5 mg/kg BID) was “significantly reduced toward normal”, the “reduction … prophylactic paws only” value ([1]; 5 mg/kg BID) was 81% and the “reduction … all paws” value ([1]; 5 mg/kg BID) was 63%. The “All Paw Score AUC” value ([1]; 5 mg/kg BID) was “*11.84”, the “Histopathology Summed Score, Knees” value ([1]; 5 mg/kg BID) was “*2.53” and the “Histopathology Summed Score, Paws” value ([1]; 5 mg/kg BID) was “*3.64”. The “Histopathology Summed Score, Six Joints” value ([1]; 5 mg/kg BID) was “*3.27”, the “Prophylactic Paw Score AUC” value ([1]; 5 mg/kg BID) was “*13.35” and the “Therapeutic Paw Score AUC” value ([1]; 5 mg/kg BID) was 34.00. The “clinical arthritis scores … (FIG. 3)” value ([1]; 5 mg/kg BID, *d2-11) was “significantly reduced”, the “Arthritis scores measured daily” value ([1]; 5 mg/kg BID) was “significantly reduced toward normal” and the “clinical arthritis scores, therapeutic paws (FIG. 2)” value ([1]; 5 mg/kg BID, *d5-11) was “significantly reduced”. The “reduction … prophylactic paws only” value ([1]; 10 mg/kg BID) was 98%, the “reduction of arthritis scores AUC, therapeutic paws only” value ([1]; 10 mg/kg BID) was 79% and the “reduction … all paws” value ([1]; 10 mg/kg BID) was 89%. The “All Paw Score AUC” value ([1]; 10 mg/kg BID) was “*3.34”, the “Histopathology Summed Score, Knees” value ([1]; 10 mg/kg BID) was “*0.68” and the “Histopathology Summed Score, Paws” value ([1]; 10 mg/kg BID) was “*0.79”. The “Histopathology Summed Score, Six Joints” value ([1]; 10 mg/kg BID) was “*0.75”, the “Prophylactic Paw Score AUC” value ([1]; 10 mg/kg BID) was “*1.60” and the “Therapeutic Paw Score AUC” value ([1]; 10 mg/kg BID) was “*11.75”. For the same compound, the “clinical arthritis scores … (FIG. 3)” value ([1]; 10 mg/kg BID, *d2-11) was “significantly reduced”, the “clinical arthritis scores, therapeutic paws (FIG. 2)” value ([1]; 10 mg/kg BID, *d2-11) was “significantly reduced” and the “Arthritis scores measured daily” value ([1]; 10 mg/kg BID) was “significantly reduced toward normal”. The Papp A→B at 1 h, 1 μM ([2]; MDCK, A > B) was 33 ×10⁻⁶ cm/s, the recovery at 1 h, 1 μM ([2]; MDCK, A > B) was 90% and the recovery at 1 h, 1 μM ([2]; MDCK, B > A) was 93%. The efflux ratio at 1 h, 1 μM [2] was 1.4, the Papp B→A at 1 h, 1 μM ([2]; B > A) was 23.8 ×10⁻⁶ cm/s and the “Avg. Papp” value (MDCK-WT) was 17.55 ×10⁻⁶ cm/s. For the same compound, the DN_AUCINF [3, 4] was 3100 ng·h/mL, the F ([3]; Dog, 3 mg/kg nominal, spray-dried dispersion, 3 mg/kg) was 77% and the DN_AUCINF [3, 5] was 2500 ng·h/mL. It also gave a DN_AUCINF [3, 6] of 2760 ng·h/mL, an F ([3]; Mouse, 1 mg/kg nominal, 0.2% MC/1% SLS, 1 mg/kg) of 81% and an AUC [3, 4] of 9110 ng·h/mL. It also gave an AUC(0-inf) [3, 4] of 9290 ng·h/mL, a Cmax [3, 4] of 1290 ng/mL and an MRT [3, 4] of 9 h. It also gave a Tmax [3, 4] of 0.83 h, a half-life [3, 4] of 7.3 h and an AUC [3, 5] of 12300 ng·h/mL. It also gave an AUC(0-inf) [3, 5] of 12500 ng·h/mL, a Cmax [3, 5] of 1350 ng/mL and an MRT [3, 5] of 10.5 h. It also gave a Tmax [3, 5] of 1.67 h, a half-life [3, 5] of 8.5 h and an AUC [3, 6] of 2720 ng·h/mL. The AUC(0-inf) [3, 6] was 2760 ng·h/mL, the Cmax [3, 6] was 290 ng/mL and the MRT [3, 6] was 5.8 h. For the same compound, the Tmax [3, 6] was 2 h, the half-life [3, 6] was 3.8 h and the IC50 (CYP3A4; CYP3A4, 2.5 μM Midazolam) was 19 µM. For the same compound, the IC50 (CYP3A4; CYP3A4, 50 μM Testosterone) was > 75 µM, the IC50 (CYP2C19) was 21 µM and the IC50 (CYP2C8) was 7 µM. For the same compound, the IC50 (CYP1A2) was 7 µM, the IC50 (CYP2C9) was 32 µM and the IC50 (CYP2D6) was 64 µM. For the same compound, the IC50 (CYP2B6) was 4 µM.
